Earlier results as cited in US20070196517A1, “Modified Saponin Molluscicide” (priority 2005, published 2007).
Counter-ions that a name gives are not always drawn.

Legend:
tropical fish (carp) = settings: carp (WHO 2002)
golden apple snails = settings: rice fields (Bayer, 2005)

O=C(Nc1ccc([N+](=O)[O-])cc1Cl)c1cc(Cl)ccc1O [Niclosamide, 2-aminoethanol salt of 2′,5-dichloro-4′,nitro-salicylanilide]
LC50 (kills 50% of tropical fish) (tropical fish (carp)): 0.14 µg/mL | effective doses for control of golden apple snail (golden apple snails): 0.5 to 1.0 mg/L
